Experimental data from publication PMC9414551 (Pharmaceuticals, 2022).
Where a name gives a salt, the structure may show the parent alone.

Legend:
Assay type in all cases: cell-based
NR1-2D NMDAR [1] = target: T1, NR1-2D NMDAR (Homo sapiens, UniProt O15399+Q05586); experiment: FLIPR Ca2+ assay, blocker concentration-response curve; design: host or cells: CHO (CHO-hN1-h2D), tetracycline-induced expression; details: for Min. (%), minimal % Ca2+ influx in the presence of 100 μM blocker: 10 µM L-glutamate, no Mg2+; for Slope: logistic fit of blocker CRC
T1 sequence (O15399 28-1336, other chains not shown): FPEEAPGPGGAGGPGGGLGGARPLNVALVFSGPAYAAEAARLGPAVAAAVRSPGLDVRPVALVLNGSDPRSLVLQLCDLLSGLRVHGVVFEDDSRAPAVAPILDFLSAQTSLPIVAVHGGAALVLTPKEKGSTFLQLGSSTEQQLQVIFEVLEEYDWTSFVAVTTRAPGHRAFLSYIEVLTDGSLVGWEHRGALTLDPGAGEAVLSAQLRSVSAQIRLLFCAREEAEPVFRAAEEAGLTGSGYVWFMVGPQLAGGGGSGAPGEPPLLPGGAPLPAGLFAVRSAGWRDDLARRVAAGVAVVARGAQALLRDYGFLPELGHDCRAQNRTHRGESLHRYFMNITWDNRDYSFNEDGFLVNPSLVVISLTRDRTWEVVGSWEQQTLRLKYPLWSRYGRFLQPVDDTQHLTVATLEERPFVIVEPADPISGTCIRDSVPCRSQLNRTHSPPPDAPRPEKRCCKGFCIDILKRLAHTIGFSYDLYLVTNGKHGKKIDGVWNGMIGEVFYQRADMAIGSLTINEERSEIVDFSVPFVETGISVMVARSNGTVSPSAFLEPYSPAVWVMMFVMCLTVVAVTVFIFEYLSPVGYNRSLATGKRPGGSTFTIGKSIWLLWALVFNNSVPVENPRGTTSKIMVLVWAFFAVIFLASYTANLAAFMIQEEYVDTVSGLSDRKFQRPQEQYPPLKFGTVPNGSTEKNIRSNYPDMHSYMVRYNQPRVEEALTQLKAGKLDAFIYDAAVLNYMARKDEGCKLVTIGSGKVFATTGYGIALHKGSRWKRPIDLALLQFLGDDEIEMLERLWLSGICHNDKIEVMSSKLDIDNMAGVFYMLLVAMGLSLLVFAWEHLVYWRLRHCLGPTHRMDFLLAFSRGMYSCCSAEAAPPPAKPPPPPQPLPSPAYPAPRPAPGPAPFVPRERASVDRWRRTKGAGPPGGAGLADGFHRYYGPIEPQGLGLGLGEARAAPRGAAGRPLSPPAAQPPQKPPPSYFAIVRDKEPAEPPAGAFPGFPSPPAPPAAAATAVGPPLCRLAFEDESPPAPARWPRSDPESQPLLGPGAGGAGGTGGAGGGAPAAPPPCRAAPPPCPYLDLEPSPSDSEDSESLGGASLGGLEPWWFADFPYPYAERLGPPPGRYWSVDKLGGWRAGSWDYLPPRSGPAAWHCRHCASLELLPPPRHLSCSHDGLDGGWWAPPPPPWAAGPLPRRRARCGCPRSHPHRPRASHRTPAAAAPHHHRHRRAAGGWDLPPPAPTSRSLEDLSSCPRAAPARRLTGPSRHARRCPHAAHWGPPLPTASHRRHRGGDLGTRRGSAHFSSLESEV
Source text: (§1) CHO cell lines stably over-expressing heterodimeric NMDARs composed of human NR1 and 2 subunits were generated by Aptuit, an Evotec company (Verona, Italy). Cell line details are available at ExPASy Cellosaurus database. Research Resource Identifiers (RRIDs) are CVCL_B3TY, CVCL_B3TZ, CVCL_B3U0, and CVCL_B3U1 for CHO-hNR1-h2A, CHO-hNR1-h2B, CHO-hN1-h2C, and CHO-hN1-h2D, respectively. Protein accession numbers were NP_015566, NP_000824, NP_000825, NP_000826, and NP_000827 for NR1, 2A, 2B, 2C, and 2D, respectively. […] The four different heterodimeric NMDARs studied were NR1-2A, NR1-2B, NR1-2C, and NR1-2D. Cell lines were cultured for a maximum of 75 passages.
(§2) FLIPR assay allowed for indirect measurement of intracellular Ca^2+ concentration by means of a Ca^2+-sensitive fluorescent dye (Fluo-4) using the FLIPR instrument (Molecular Devices, San Jose, CA, USA). For these assays, 40 mM stock solutions of the test items were prepared in 100% dimethyl sulfoxide (DMSO), while glutamate and glycine 4 mM stock solutions were prepared in water. 384-well compound plates containing 400 × concentrated test item, glutamate, and glycine were prepared using Labcyte Echo acoustic dispensing system and stored at −20 °C until the day of the experiment.
(§3) Glycine 10 μM was always included in every test item addition.
(§4) Glycine was kept at a constant concentration of 10 μM during experiments.

NR1-2B NMDAR [2] = target: T2, NR1-2B NMDAR (Homo sapiens, UniProt Q05586+Q13224); experiment: as above; design: host or cells: CHO (CHO-hNR1-h2B), constitutive expression; details: for Min. (%), minimal % Ca2+ influx in the presence of 100 μM blocker: 10 µM L-glutamate, no Mg2+; for Slope: logistic fit of blocker CRC
T2 sequence (Q13224 27-1484, other chains not shown): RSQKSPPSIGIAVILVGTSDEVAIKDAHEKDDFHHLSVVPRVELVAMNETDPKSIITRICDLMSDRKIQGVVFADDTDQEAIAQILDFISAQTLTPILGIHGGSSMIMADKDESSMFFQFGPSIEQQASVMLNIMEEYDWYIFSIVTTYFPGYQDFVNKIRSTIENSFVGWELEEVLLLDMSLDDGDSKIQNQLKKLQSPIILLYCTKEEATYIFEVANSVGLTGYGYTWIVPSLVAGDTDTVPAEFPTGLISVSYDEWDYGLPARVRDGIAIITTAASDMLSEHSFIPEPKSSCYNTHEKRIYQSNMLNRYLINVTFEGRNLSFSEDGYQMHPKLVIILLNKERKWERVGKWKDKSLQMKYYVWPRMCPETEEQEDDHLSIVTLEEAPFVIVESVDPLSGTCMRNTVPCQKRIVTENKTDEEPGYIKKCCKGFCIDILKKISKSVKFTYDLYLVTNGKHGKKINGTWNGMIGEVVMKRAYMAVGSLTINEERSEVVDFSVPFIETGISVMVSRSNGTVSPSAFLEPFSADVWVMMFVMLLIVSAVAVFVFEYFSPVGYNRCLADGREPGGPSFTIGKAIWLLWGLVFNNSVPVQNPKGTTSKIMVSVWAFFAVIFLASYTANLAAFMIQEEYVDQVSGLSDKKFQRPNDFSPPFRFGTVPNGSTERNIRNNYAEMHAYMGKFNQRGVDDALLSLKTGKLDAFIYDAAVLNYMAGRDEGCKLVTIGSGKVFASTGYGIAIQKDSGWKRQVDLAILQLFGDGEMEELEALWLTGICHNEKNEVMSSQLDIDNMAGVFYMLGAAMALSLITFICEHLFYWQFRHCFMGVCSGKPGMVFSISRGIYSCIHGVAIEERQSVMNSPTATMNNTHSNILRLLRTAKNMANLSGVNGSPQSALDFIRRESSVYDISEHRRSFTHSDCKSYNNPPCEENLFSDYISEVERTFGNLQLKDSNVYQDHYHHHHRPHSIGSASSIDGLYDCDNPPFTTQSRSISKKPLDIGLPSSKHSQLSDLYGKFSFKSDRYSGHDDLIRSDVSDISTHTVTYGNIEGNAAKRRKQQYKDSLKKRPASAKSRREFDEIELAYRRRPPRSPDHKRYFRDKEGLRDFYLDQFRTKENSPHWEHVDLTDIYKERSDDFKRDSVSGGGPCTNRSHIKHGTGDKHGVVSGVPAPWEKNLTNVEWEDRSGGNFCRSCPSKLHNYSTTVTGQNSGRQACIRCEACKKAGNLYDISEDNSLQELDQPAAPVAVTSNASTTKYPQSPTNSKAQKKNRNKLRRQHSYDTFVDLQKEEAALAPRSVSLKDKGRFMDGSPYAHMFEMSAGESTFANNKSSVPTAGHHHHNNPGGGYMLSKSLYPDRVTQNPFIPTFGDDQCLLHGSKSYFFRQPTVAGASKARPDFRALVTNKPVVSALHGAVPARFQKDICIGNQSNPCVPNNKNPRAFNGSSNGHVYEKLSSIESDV
Source text: as §1, §2, §3, §4

NR1-2D NMDAR [3] = target: T1, NR1-2D NMDAR; experiment: cell-based; design: host or cells: CHO (CHO-hN1-h2D), tetracycline-induced expression; details: for remaining activity at 0.049 µM / remaining activity at 0.195 µM / remaining activity at 0.781 µM / remaining activity at 3.1 µM / remaining activity at 12.5 µM / remaining activity at 50 µM: read-out: L-glutamate Max. (maximal asymptote) in the presence of test item, GluN1/GluN2D; for remaining activity at 0.049 µM: test item 0.049 μM; for remaining activity at 0.195 µM: test item 0.195 μM; for remaining activity at 0.781 µM: test item 0.781 μM; for remaining activity at 3.1 µM: test item 3.1 μM; for remaining activity at 12.5 µM: test item 12.5 μM; for remaining activity at 50 µM: test item 50 μM
NR1-2C NMDAR [4] = target: T3, NR1-2C NMDAR (Homo sapiens, UniProt Q05586+Q14957); experiment: FLIPR Ca2+ assay, blocker concentration-response curve; design: host or cells: CHO (CHO-hN1-h2C), tetracycline-induced expression; details: for Min. (%), minimal % Ca2+ influx in the presence of 100 μM blocker: 10 µM L-glutamate, no Mg2+; for Slope: logistic fit of blocker CRC
T3 sequence (Q14957 20-1233, other chains not shown): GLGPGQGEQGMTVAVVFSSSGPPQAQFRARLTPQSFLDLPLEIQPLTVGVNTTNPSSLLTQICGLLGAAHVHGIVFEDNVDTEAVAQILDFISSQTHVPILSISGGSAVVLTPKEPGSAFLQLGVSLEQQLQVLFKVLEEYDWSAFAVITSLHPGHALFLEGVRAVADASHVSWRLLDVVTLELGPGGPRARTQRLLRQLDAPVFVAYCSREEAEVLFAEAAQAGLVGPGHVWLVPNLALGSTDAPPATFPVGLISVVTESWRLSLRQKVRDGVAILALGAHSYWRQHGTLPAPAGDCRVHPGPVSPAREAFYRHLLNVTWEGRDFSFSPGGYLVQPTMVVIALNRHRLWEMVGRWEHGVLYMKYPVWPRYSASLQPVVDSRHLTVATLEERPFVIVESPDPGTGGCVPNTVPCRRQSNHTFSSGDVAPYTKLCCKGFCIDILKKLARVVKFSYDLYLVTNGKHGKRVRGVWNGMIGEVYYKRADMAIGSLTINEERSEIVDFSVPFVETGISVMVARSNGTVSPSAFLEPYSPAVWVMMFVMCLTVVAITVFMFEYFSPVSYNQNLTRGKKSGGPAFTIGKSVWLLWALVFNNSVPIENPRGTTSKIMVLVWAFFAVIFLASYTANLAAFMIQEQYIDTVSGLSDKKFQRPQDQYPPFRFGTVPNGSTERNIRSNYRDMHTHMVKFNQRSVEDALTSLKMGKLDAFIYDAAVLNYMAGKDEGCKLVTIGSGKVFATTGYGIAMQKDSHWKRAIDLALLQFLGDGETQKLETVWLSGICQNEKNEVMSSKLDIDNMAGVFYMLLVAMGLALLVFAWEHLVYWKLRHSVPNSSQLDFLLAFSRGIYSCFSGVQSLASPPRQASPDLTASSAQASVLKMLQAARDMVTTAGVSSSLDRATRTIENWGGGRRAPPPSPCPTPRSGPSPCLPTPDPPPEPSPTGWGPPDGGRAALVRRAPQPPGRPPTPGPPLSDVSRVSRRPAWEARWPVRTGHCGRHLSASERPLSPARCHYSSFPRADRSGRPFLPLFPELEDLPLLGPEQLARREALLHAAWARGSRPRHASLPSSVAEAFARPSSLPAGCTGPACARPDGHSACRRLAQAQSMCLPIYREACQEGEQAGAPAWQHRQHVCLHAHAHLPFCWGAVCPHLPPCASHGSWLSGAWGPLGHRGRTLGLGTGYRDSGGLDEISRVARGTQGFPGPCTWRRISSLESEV
Source text: as §1, §2, §3, §4

NR1-2A NMDAR [5] = target: T4, NR1-2A NMDAR (Homo sapiens, UniProt Q05586+Q12879); experiment: cell-based; design: host or cells: CHO (CHO-hNR1-h2A), tetracycline-induced expression; details: for remaining activity at 0.049 µM / remaining activity at 0.195 µM / remaining activity at 0.781 µM / remaining activity at 3.1 µM / remaining activity at 12.5 µM / remaining activity at 50 µM: read-out: L-glutamate Max. (maximal asymptote) in the presence of test item, GluN1/GluN2A; for remaining activity at 0.049 µM: test item 0.049 μM; for remaining activity at 0.195 µM: test item 0.195 μM; for remaining activity at 0.781 µM: test item 0.781 μM; for remaining activity at 3.1 µM: test item 3.1 μM; for remaining activity at 12.5 µM: test item 12.5 μM; for remaining activity at 50 µM: test item 50 μM
NR1-2A NMDAR [6] = target: T4, NR1-2A NMDAR; experiment: FLIPR Ca2+ assay, blocker concentration-response curve; design: host or cells: CHO (CHO-hNR1-h2A), tetracycline-induced expression; details: for Slope: logistic fit of blocker CRC
Source text: as §1, §2, §3, §4

NR1-2B NMDAR [7] = target: T2, NR1-2B NMDAR; experiment: cell-based; design: host or cells: CHO (CHO-hNR1-h2B), constitutive expression; details: for remaining activity at 0.049 µM / remaining activity at 0.195 µM / remaining activity at 0.781 µM / remaining activity at 3.1 µM / remaining activity at 12.5 µM / remaining activity at 50 µM: read-out: L-glutamate Max. (maximal asymptote) in the presence of test item, GluN1/GluN2B; for remaining activity at 0.049 µM: test item 0.049 μM; for remaining activity at 0.195 µM: test item 0.195 μM; for remaining activity at 0.781 µM: test item 0.781 μM; for remaining activity at 3.1 µM: test item 3.1 μM; for remaining activity at 12.5 µM: test item 12.5 μM; for remaining activity at 50 µM: test item 50 μM
NR1-2C NMDAR [8] = target: T3, NR1-2C NMDAR; experiment: cell-based; design: host or cells: CHO (CHO-hN1-h2C), tetracycline-induced expression; details: for remaining activity at 0.049 µM / remaining activity at 0.195 µM / remaining activity at 0.781 µM / remaining activity at 3.1 µM / remaining activity at 12.5 µM / remaining activity at 50 µM: read-out: L-glutamate Max. (maximal asymptote) in the presence of test item, GluN1/GluN2C; for remaining activity at 0.049 µM: test item 0.049 μM; for remaining activity at 0.195 µM: test item 0.195 μM; for remaining activity at 0.781 µM: test item 0.781 μM; for remaining activity at 3.1 µM: test item 3.1 μM; for remaining activity at 12.5 µM: test item 12.5 μM; for remaining activity at 50 µM: test item 50 μM
NR1-2D NMDAR [9] = target: T1, NR1-2D NMDAR; experiment: Whole-cell automated patch-clamp (QPatch) in 1 mM Mg2+; design: host or cells: CHO (CHO-hN1-h2D), tetracycline-induced expression; details: 1 mM Mg2+, −30 mV to −80 mV
Experimental: Data were obtained in automated patch-clamp platform. […] Statistical results of one-way analysis of variance (ANOVA) followed by Tukey’s multiple comparisons test also reported p < 0.05 (*), p < 0.01 (**), p < 0.001 (***), and p < 0.0001 (****). Glu is glutamate.
For QPatch experiments, cells were grown in T-flasks first at 37 °C, 5% CO2 for 3 to 4 h, then at 30 °C, 5% CO2 for 18 to 24 h in DMEM/F12 medium with added 500 μM ketamine and 10 μg/mL tetracycline (except for NR1-2B-CHO cells) without additional antibiotics. Cells were manually detached from the culture dish and automatically dispensed in QPatch wells with extracellular solution in the presence of 1 mM Mg^2+ and 500 μM ketamine.
Holding potential was −80 mV, and voltage protocol included a depolarizing 2-s step pulse to +60 mV to check the quality of the seal and cell NMDAR expression level, followed by a 2-s ramp-up to holding potential.

Structure (SMILES) | Min. (%), minimal % Ca2+ influx in the presence of 100 μM blocker (NR1-2D NMDAR [1]) [%] | Slope (NR1-2D NMDAR [1]) | Min. (%), minimal % Ca2+ influx in the presence of 100 μM blocker (NR1-2B NMDAR [2]) [%] | Slope (NR1-2B NMDAR [2]) | remaining activity at 0.049 µM (NR1-2D NMDAR [3]) [%] | remaining activity at 0.195 µM (NR1-2D NMDAR [3]) [%] | remaining activity at 0.781 µM (NR1-2D NMDAR [3]) [%] | remaining activity at 3.1 µM (NR1-2D NMDAR [3]) [%] | remaining activity at 12.5 µM (NR1-2D NMDAR [3]) [%] | remaining activity at 50 µM (NR1-2D NMDAR [3]) [%] | Min. (%), minimal % Ca2+ influx in the presence of 100 μM blocker (NR1-2C NMDAR [4]) [%] | Slope (NR1-2C NMDAR [4]) | remaining activity at 0.049 µM (NR1-2A NMDAR [5]) [%] | remaining activity at 0.195 µM (NR1-2A NMDAR [5]) [%] | remaining activity at 0.781 µM (NR1-2A NMDAR [5]) [%] | remaining activity at 3.1 µM (NR1-2A NMDAR [5]) [%] | remaining activity at 12.5 µM (NR1-2A NMDAR [5]) [%] | remaining activity at 50 µM (NR1-2A NMDAR [5]) [%] | Slope (NR1-2A NMDAR [6]) | remaining activity at 0.049 µM (NR1-2B NMDAR [7]) [%] | other results
COc1ccc2c(c1)[C@]13CCCC[C@@H]1[C@H](C2)N(C)CC3 [Dextromethorphan, dextromethorphan] | 43 | −1.2 | 14 | −0.89 | 93 | 91 | 99 | 87 | 59 | 31 | 14 | −1.0 | 98 | 92 | 99 | 88 | 79 | 44 | −0.80 | 95 | Kb (NR1-2D NMDAR [3]; NR1-2D, operational equation for allosteric modulators, no Mg2+): 6.7 µM; Affinity Ratio (%) (NR1-2D NMDAR [3]; NR1-2D, reciprocal of KB, highest affinity subtype = 100%): 18%; Kb (NR1-2A NMDAR [5]; NR1-2A, operational equation for allosteric modulators, no Mg2+): 9.6 µM; Affinity Ratio (%) (NR1-2A NMDAR [5]; NR1-2A, reciprocal of KB, highest affinity subtype = 100%): 13%; Min. (%), minimal % Ca2+ influx in the presence of 100 μM blocker (NR1-2A NMDAR [6]; 100 μM blocker, 10 µM L-glutamate, no Mg2+): 35%; Kb (NR1-2B NMDAR [7]; NR1-2B, operational equation for allosteric modulators, no Mg2+): 1.9 µM; Affinity Ratio (%) (NR1-2B NMDAR [7]; NR1-2B, reciprocal of KB, highest affinity subtype = 100%): 63%; remaining activity at 0.195 µM (NR1-2B NMDAR [7]): 92%; remaining activity at 0.781 µM (NR1-2B NMDAR [7]): 88%; remaining activity at 3.1 µM (NR1-2B NMDAR [7]): 74%; remaining activity at 12.5 µM (NR1-2B NMDAR [7]): 57%; remaining activity at 50 µM (NR1-2B NMDAR [7]): 32%; Kb (NR1-2C NMDAR [8]; NR1-2C, operational equation for allosteric modulators, no Mg2+): 1.2 µM; Affinity Ratio (%) (NR1-2C NMDAR [8]; NR1-2C, reciprocal of KB, highest affinity subtype = 100%): 100%; remaining activity at 0.049 µM (NR1-2C NMDAR [8]): 95%; remaining activity at 0.195 µM (NR1-2C NMDAR [8]): 97%; remaining activity at 0.781 µM (NR1-2C NMDAR [8]): 86%; remaining activity at 3.1 µM (NR1-2C NMDAR [8]): 67%; remaining activity at 12.5 µM (NR1-2C NMDAR [8]): 26%; remaining activity at 50 µM (NR1-2C NMDAR [8]): 13%
CCC(=O)C(C[C@H](C)N(C)C)(c1ccccc1)c1ccccc1 [REL-1017, dextromethadone HCl] | 47 | −0.68 | 14 | −1.1 | 101 | 97 | 101 | 97 | 82 | 41 | 15 | −0.84 | 103 | 98 | 103 | 98 | 84 | 35 | −1.0 | 96 | effect on L-glutamate-elicited current (NR1-2D NMDAR [9]; 10 μM REL-1017, 1 μM L-glutamate): significantly reduced; effect on L-glutamate-elicited current (NR1-2D NMDAR [9]; 10 μM REL-1017, 10 μM L-glutamate): significantly reduced; remaining activity at 0.195 µM (NR1-2B NMDAR [7]): 96%; remaining activity at 0.781 µM (NR1-2B NMDAR [7]): 93%; remaining activity at 3.1 µM (NR1-2B NMDAR [7]): 89%; remaining activity at 12.5 µM (NR1-2B NMDAR [7]): 72%; remaining activity at 50 µM (NR1-2B NMDAR [7]): 35%; remaining activity at 0.049 µM (NR1-2C NMDAR [8]): 99%; remaining activity at 0.195 µM (NR1-2C NMDAR [8]): 100%; remaining activity at 0.781 µM (NR1-2C NMDAR [8]): 95%; remaining activity at 3.1 µM (NR1-2C NMDAR [8]): 94%; remaining activity at 12.5 µM (NR1-2C NMDAR [8]): 75%; remaining activity at 50 µM (NR1-2C NMDAR [8]): 30%
